Patent US9708318B2, “Bicyclic heterocycles as FGFR4 inhibitors” (Incyte Corporation, priority 2015, dated 2017)
Like-named read-outs stand apart in the source and are kept apart here.

Columns and labels:
FGFR1 = FGFR1 (Homo sapiens (Human), UniProt P11362); assay: FGFR Enzymatic Assay (FRET peptide phosphorylation), FGFR1
FGFR3 enzyme = FGFR3 enzyme (Homo sapiens (Human), UniProt P22607); assay: FGFR Enzymatic Assay (FRET peptide phosphorylation), FGFR3; format: biochemical; settings: for IC50: read-out: FGFR3 IC50
Method: (§1) The inhibitor potency of the exemplified compounds was measured in an enzyme assay that measures peptide phosphorylation using FRET measurements to detect product formation. Inhibitors were serially diluted in DMSO and a volume of 0.5 μL was transferred to the wells of a 384-well plate.
(§2) GraphPad prism3 was used to analyze the data.

FGFR4 = FGFR4 (Homo sapiens (Human), UniProt P22455); assay: FGFR Enzymatic Assay (FRET peptide phosphorylation), FGFR4; format: biochemical; settings: for FGFR1/FGFR4 IC50 ratio / FGFR2/FGFR4 IC50 ratio / FGFR3/FGFR4 IC50 ratio: FGFR4 selectivity
Method: as §1
(§3) The enzymes were purchased from Millipore or Invitrogen.
as §2

FGFR2 = FGFR2 (Homo sapiens (Human), UniProt P21802); assay: FGFR Enzymatic Assay (FRET peptide phosphorylation), FGFR2; format: biochemical
Method: as §1, §3, §2

[1] = read-out: FGFR1 IC50, pre-incubated for 5 to 10 minutes
[2] = read-out: FGFR1 IC50, pre-incubated for 4 hours
[3] = pre-incubated for 5 to 10 minutes
[4] = FGFR3 selectivity, pre-incubated for 4 hours

FGFR3 enzyme, sequence (P22607 23-806): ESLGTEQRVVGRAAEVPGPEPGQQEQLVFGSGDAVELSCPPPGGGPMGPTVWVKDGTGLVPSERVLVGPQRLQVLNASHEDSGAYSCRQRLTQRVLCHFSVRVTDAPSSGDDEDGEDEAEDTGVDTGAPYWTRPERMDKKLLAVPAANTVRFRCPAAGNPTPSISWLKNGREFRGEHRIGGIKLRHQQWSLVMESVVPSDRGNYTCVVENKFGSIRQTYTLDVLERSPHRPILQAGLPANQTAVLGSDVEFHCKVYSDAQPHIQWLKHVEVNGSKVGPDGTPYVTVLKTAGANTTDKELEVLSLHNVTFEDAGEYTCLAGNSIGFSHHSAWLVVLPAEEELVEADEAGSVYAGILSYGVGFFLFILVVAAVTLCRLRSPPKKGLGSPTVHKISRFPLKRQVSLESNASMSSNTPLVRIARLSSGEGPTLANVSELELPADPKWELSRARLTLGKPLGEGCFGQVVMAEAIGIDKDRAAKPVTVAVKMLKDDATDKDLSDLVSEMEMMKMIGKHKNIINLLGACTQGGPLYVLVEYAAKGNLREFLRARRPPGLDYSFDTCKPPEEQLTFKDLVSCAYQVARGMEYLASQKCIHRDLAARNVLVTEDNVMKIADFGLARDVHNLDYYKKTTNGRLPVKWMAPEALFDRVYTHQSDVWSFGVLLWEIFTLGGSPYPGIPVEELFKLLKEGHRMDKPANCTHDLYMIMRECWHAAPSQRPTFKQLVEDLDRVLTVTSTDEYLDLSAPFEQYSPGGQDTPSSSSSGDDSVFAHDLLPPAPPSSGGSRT
FGFR2, sequence (P21802 22-821): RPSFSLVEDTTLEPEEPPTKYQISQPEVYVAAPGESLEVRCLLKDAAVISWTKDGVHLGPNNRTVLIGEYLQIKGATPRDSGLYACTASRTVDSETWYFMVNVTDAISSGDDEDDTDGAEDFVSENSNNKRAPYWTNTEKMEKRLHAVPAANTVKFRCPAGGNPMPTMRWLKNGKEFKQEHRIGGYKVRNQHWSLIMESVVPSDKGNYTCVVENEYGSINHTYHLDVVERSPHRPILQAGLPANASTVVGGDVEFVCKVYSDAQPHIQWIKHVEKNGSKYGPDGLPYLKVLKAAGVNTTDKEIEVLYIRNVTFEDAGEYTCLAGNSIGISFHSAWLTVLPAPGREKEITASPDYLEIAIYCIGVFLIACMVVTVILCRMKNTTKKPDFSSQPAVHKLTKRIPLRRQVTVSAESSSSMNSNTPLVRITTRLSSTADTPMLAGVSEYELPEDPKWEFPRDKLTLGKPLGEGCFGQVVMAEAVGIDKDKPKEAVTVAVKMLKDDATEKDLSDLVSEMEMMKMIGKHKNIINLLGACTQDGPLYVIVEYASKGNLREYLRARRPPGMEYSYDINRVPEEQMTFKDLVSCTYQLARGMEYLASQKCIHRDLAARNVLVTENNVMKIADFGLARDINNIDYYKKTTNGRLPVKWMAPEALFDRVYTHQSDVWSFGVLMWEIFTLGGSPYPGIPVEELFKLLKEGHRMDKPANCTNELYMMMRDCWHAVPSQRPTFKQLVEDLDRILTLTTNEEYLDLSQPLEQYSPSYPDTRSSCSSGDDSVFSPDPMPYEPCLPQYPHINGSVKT
FGFR1, sequence (P11362 22-822): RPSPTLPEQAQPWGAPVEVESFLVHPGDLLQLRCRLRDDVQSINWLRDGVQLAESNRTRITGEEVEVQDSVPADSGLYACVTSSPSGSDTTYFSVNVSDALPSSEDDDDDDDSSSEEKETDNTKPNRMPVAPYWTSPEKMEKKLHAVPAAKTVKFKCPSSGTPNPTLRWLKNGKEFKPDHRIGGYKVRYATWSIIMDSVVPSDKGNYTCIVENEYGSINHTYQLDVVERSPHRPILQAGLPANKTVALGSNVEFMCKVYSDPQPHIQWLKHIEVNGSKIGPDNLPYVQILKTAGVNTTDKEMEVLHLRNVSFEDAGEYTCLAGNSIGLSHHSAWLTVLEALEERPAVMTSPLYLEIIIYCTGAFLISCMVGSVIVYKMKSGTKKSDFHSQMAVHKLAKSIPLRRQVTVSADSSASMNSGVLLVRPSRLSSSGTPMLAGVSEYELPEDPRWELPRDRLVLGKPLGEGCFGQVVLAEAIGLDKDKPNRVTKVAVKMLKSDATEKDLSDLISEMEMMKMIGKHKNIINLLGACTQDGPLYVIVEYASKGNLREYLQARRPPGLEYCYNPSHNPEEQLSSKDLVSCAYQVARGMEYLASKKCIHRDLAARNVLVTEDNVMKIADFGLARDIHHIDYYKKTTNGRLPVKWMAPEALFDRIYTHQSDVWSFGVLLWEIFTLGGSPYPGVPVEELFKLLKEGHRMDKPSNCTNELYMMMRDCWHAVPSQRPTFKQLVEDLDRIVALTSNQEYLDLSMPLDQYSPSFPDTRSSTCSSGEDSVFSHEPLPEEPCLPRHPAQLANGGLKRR
FGFR4, sequence (P22455 22-802): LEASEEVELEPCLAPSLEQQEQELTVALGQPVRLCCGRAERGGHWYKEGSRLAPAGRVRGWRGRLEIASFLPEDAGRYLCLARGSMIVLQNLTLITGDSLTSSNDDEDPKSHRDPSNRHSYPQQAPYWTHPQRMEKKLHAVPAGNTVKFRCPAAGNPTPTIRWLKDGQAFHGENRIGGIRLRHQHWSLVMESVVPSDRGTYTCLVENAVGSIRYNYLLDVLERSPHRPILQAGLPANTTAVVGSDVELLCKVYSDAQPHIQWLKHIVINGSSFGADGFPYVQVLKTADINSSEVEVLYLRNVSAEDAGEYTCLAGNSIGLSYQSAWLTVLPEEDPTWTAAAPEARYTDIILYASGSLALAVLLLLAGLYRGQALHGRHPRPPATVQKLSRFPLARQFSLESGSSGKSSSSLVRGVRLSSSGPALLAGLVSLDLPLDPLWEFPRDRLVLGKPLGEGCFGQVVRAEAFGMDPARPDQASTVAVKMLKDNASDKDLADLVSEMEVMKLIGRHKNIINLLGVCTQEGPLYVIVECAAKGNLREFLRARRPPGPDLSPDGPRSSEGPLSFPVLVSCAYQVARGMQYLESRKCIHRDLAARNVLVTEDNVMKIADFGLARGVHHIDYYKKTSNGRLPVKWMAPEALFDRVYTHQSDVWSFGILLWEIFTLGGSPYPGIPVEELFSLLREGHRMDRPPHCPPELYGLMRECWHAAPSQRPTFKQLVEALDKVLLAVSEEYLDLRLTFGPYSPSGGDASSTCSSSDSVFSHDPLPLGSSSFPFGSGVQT

Row | Compound | IC50 (FGFR1; [1]) | IC50 (FGFR1; [2]) | IC50 (FGFR3 enzyme; [3]) | IC50 (FGFR3 enzyme; pre-incubated for 4 hours) | FGFR1/FGFR4 IC50 ratio (FGFR4; [3]) | FGFR2/FGFR4 IC50 ratio (FGFR4; [3]) | FGFR3/FGFR4 IC50 ratio (FGFR4; [3]) | FGFR1/FGFR4 IC50 ratio (FGFR4; pre-incubated for 4 hours) | FGFR2/FGFR4 IC50 ratio (FGFR4; pre-incubated for 4 hours) | FGFR3/FGFR4 IC50 ratio (FGFR4; pre-incubated for 4 hours) | IC50 (FGFR4; [3]) | IC50 (FGFR4; pre-incubated for 4 hours) | IC50 (FGFR2; [3]) | IC50 (FGFR2; pre-incubated for 4 hours) | FGFR1/FGFR3 IC50 ratio (FGFR3 enzyme; [4]) | FGFR4/FGFR3 IC50 ratio (FGFR3 enzyme; [4]) | IC50 (FGFR1; FGFR1 IC50 (nM), pre-incubated for 5 to 10 minutes) | IC50 (FGFR1; FGFR1 IC50 (nM), pre-incubated for 4 hours)
1 | COc1cc(OC)c(F)c(N2Cc3cnc(-c4cc(N)c(F)cc4C)cc3C3(CC3)C2=O)c1F [Example 2, 6′-(5-amino-4-fluoro-2-methylphenyl)-2′-(2,6-difluoro-3,5-dimethoxyphenyl)-1′H-spiro[cyclopropane-1,4′-[2,7]naphthyridin]-3′(2′H)-one] | > 200 nM | > 200 nM | > 200 nM | > 200 nM | >10 | >10 | >10 | >10 | >10 | >10 | 30 to 200 nM | 30 to 200 nM | > 200 nM | > 200 nM | – | – | – | –
2 | CCOc1cc(CN2C(=O)N(c3c(F)c(OC)cc(OC)c3F)Cc3cnc(-c4cn(C)nc4C)cc32)ccn1 [Example 116, 3-(2,6-difluoro-3,5-dimethoxyphenyl)-7-(1,3-dimethyl-1H-pyrazol-4-yl)-1-((2-ethoxypyridin-4-yl)methyl)-3,4-dihydropyrido[4,3-d]pyrimidin-2(1H)-one] | – | – | < 10 nM | – | – | – | – | – | – | – | 10 to 30 nM | – | < 10 nM | – | – | – | 10 to 30 nM | –
3 | CCN1C(=O)N(c2c(F)c(OC)cc(OC)c2F)Cc2cnc(-c3cccnc3)cc21 [Example 23, 3-(2,6-difluoro-3,5-dimethoxyphenyl)-1-ethyl-7-(pyridin-3-yl)-3,4-dihydropyrido[4,3-d]pyrimidin-2(1H)-one] | – | – | – | < 10 nM | – | – | – | – | – | – | – | < 10 nM | – | < 10 nM | >5 | – | – | 30 to 200 nM

The next lines start with the values.

Row | IC50 (FGFR1; [1]) | IC50 (FGFR1; [2]) | IC50 (FGFR3 enzyme; [3]) | IC50 (FGFR3 enzyme; pre-incubated for 4 hours) | FGFR1/FGFR4 IC50 ratio (FGFR4; [3]) | FGFR2/FGFR4 IC50 ratio (FGFR4; [3]) | FGFR3/FGFR4 IC50 ratio (FGFR4; [3]) | FGFR1/FGFR4 IC50 ratio (FGFR4; pre-incubated for 4 hours) | FGFR2/FGFR4 IC50 ratio (FGFR4; pre-incubated for 4 hours) | FGFR3/FGFR4 IC50 ratio (FGFR4; pre-incubated for 4 hours) | IC50 (FGFR4; [3]) | IC50 (FGFR4; pre-incubated for 4 hours) | IC50 (FGFR2; [3]) | IC50 (FGFR2; pre-incubated for 4 hours) | FGFR1/FGFR3 IC50 ratio (FGFR3 enzyme; [4]) | FGFR4/FGFR3 IC50 ratio (FGFR3 enzyme; [4]) | IC50 (FGFR1; FGFR1 IC50 (nM), pre-incubated for 5 to 10 minutes) | IC50 (FGFR1; FGFR1 IC50 (nM), pre-incubated for 4 hours) | Compound
4 | – | < 10 nM | – | < 10 nM | – | – | – | – | – | – | – | < 10 nM | – | < 10 nM | >10 | >10 | – | – | COc1cc(OC)c(F)c(N2Cc3cnc(-c4cn(C)nc4C)cc3N(Cc3cnn(C4CC4)c3)C2=O)c1F [Example 124, 1-((1-cyclopropyl-1H-pyrazol-4-yl)methyl)-3-(2,6-difluoro-3,5-dimethoxyphenyl)-7-(1,3-dimethyl-1H-pyrazol-4-yl)-3,4-dihydropyrido[4,3-d]pyrimidin-2(1H)-one]
5 | – | > 200 nM | – | > 200 nM | – | – | – | >100 | >100 | >50 | – | 10 to 30 nM | – | > 200 nM | – | – | – | – | COc1cc(OC)c(F)c(N2Cc3cnc(-c4nn(CC5CCOCC5)cc4C#N)cc3C3(CC3)C2=O)c1F [Example 173, 3-(2′-(2,6-difluoro-3,5-dimethoxyphenyl)-3′-oxo-2′,3′-dihydro-1′H-spiro[cyclopropane-1,4′-[2,7]naphthyridine]-6′-yl)-1-((tetrahydro-2H-pyran-4-yl)methyl)-1H-pyrazole-4-carbonitrile]
6 | > 200 nM | > 200 nM | > 200 nM | > 200 nM | >25 | >10 | >10 | >50 | >25 | >25 | 30 to 200 nM | 30 to 200 nM | > 200 nM | > 200 nM | >1 | – | – | – | COc1cc(OC)c(F)c(N2Cc3cnc(-c4cc(N)cnc4C)cc3C3(CC3)C2=O)c1F [Example 7, 6′-(5-amino-2-methylpyridin-3-yl)-2′-(2,6-difluoro-3,5-dimethoxyphenyl)-1′H-spiro[cyclopropane-1,4′-[2,7]naphthyridin]-3′(2′H)-one]
7 | – | > 200 nM | – | > 200 nM | – | – | – | >50 | >25 | >10 | – | 10 to 30 nM | – | > 200 nM | – | – | – | – | COc1cc(OC)c(F)c(N2Cc3cnc(-c4nn(C)cc4C#N)cc3C3(CC3)C2=O)c1F [Example 172, 3-(2′-(2,6-difluoro-3,5-dimethoxyphenyl)-3′-oxo-2′,3′-dihydro-1′H-spiro[cyclopropane-1,4′-[2,7]naphthyridine]-6′-yl)-1-methyl-1H-pyrazole-4-carbonitrile]
